Data set [1] relates to CCRF S-180. Description: Antitumor activity against mouse CCRF S-180 cells implanted in Kunming mouse assessed as inhibition of tumor growth at 1 mg/kg,ip administered for 9 consecutive days. It is filed as functional.
For data set [2], the system named is CCRF S-180. Kind of data set: Antitumor activity against mouse CCRF S-180 cells implanted in Kunming mouse assessed as inhibition of tumor growth at 2 mg/kg,ip administered for 9 consecutive days. It is filed as functional.
In data set [3] the test system is CCRF S-180. Kind of data set: Antitumor activity against mouse CCRF S-180 cells implanted in Kunming mouse assessed as inhibition of tumor growth at 4 mg/kg,ip administered for 9 consecutive days. It is filed as functional.
In data set [4] the test system is MDA-MB-435. Description: Inhibition of cell migration in human MDA-MB-435 cells incubated for 24 hrs by hematoxylin staining based assay. It is filed as functional. To be noted: MDA-MB-435, 24 h.
Data set [5] in a line: Cytotoxicity against human HEK293F cells. It is filed as toxicity, cell-based.
In data set [6] the test system is MKN-45. Description: Cytotoxicity against human MKN-45 cells. Type of data set: functional, cell-based.
The subject of data set [7] is ACHN. Kind of data set: Cytotoxicity against human ACHN cells. It is filed as functional, cell-based.
The subject of data set [8] is HeLa. Description: Cytotoxicity against human HeLa cells. Type of data set: functional, cell-based.
For data set [9], the system named is ACHN. Description: Cytotoxicity against human ACHN cells assessed as cell viability. Type of data set: functional.
For data set [10], the system named is ACHN. Kind of data set: Cytotoxicity against human ACHN cells assessed as cell viability at 5 mM in presence of paclitaxel. Type of data set: functional. To be noted: read-out: Activity.
Data set [11] can be described thus: Cytotoxicity against mouse BV-2 cells assessed as inhibition of cell growth incubated for 24 hrs by CTG luminescence assay. Type of data set: toxicity, cell-based.
Data set [12] can be described thus: Cytotoxicity against rat Highly aggressively proliferating immortalized Microglia cells assessed as inhibition of cell growth incubated for 24 hrs by CTG luminescence assay. It is filed as toxicity, cell-based.
In data set [13] the test system is C6. Kind of data set: Antimitotic activity against rat C6 cells assessed as inhibition of cell proliferation by measuring inhibitory dose by [3H]-thymidine incorporation based […]. To be noted: read-out: ID50 (the source's name). It is filed as functional.
The subject of data set [14] is MDA-MB-231. Description: Cytotoxicity against human MDA-MB-231 cells assessed as inhibition of cell proliferation by MTT colorimetric assay. Type of data set: functional, cell-based.
Data set [15] concerns A549. Description: Cytotoxicity against human A549 cells assessed as inhibition of cell proliferation by MTT colorimetric assay. Type of data set: functional, cell-based.
Data set [16] deals with HSC-2. Description: Cytotoxicity against human HSC-2 cells assessed as inhibition of cell proliferation by MTT colorimetric assay. It is filed as functional, cell-based.
Data set [17] concerns Ca9-22. Description: Cytotoxicity against human Ca9-22 cells assessed as inhibition of cell proliferation by MTT colorimetric assay. Type of data set: functional, cell-based.
In data set [18] the test system is MCF7. Kind of data set: Antiproliferative activity against human MCF7 cells assessed as inhibition of cell proliferation. It is filed as functional, cell-based.
The subject of data set [19] is HCT-116. Description: Antiproliferative activity against human HCT-116 cells assessed as inhibition of cell proliferation. It is filed as functional, cell-based.
The test system of data set [20] is MDA-MB-231. Kind of data set: Cytotoxicity against human MDA-MB-231 cells assessed as cell growth inhibition by alamar blue assay. It is filed as functional, cell-based.
The subject of data set [21] is MCF7. Kind of data set: Cytotoxicity against human MCF7 cells assessed as cell growth inhibition by MTT assay. Type of data set: functional, cell-based.
Data set [22] relates to HeLa. Description: Cytotoxicity against human HeLa cells assessed as cell growth inhibition by alamar blue assay. It is filed as functional, cell-based.
Data set [23] concerns U-937. Kind of data set: Cytotoxicity against human U-937 cells assessed as cell growth inhibition by alamar blue assay. Type of data set: functional, cell-based.
Data set [24] concerns Jurkat. Description: Cytotoxicity against human Jurkat cells assessed as cell growth inhibition by alamar blue assay. Type of data set: functional, cell-based.
In data set [25] the test system is MCF-10A. Kind of data set: Cytotoxicity against human MCF-10A cells assessed as cell growth inhibition by alamar blue assay. Type of data set: functional, cell-based.
Data set [26] can be described thus: Cytotoxicity against mouse NIH/3T3 cells assessed as cell growth inhibition by alamar blue assay. It is filed as toxicity, cell-based, NIH3T3.
For data set [27], the system named is HL-60. Kind of data set: Antiproliferative activity against human HL-60 cells assessed as cell growth inhibition. Type of data set: functional, cell-based.
For data set [28], the system named is COLO 205. Kind of data set: Antiproliferative activity against human COLO 205 cells assessed as cell growth inhibition. It is filed as functional, cell-based.

Values after ≈ are worked out from the molar mass of the structure shown.

For the compound `CCCCCCCCCCCCCO[C@@H]1O[C@H](CO[C@@H]2O[C@H](CO)[C@@H](O[C@@H]3O[C@H](CO[C@@H]4O[C@H](CO)[C@@H](O)[C@H](O)[C@H]4O)[C@@H](O)[C@H](O[C@@H]4O[C@H](CO)[C@@H](O)[C@H](O)[C@H]4O)[C@H]3O)[C@H](O)[C@H]2O)[C@@H](O)[C@H](O[C@@H]2O[C@H](CO)[C@@H](O[C@@H]3O[C@H](CO)[C@H](O)[C@H](O)[C@H]3O)[C@H](O)[C@H]2O)[C@H]1O`, in [1], the inhibition in vivo at 1 mg/kg came to 39.1%. Besides, the inhibition in vivo at 2 mg/kg in [2] was 39.9%. Further, the inhibition in vivo at 4 mg/kg in [3] was 37.9%.
For `CCCCCCCCCCCCCCCCOCC(COC1O[C@H](CO)[C@@H](O[C@@H]2O[C@H](CO)[C@H](O)[C@H](O)[C@H]2O)[C@H](O)[C@H]1O)OC` (stereo partly drawn), the IC50 in [4] stood at 0.3 µM.
As to `CCCCCCCC(=O)O[C@H]1[C@H](OC[C@H](O)[C@H](O)[C@@H](O)[C@@H](O)CO)O[C@H](COC(=O)CCCCC)[C@@H](OC(=O)CCCCC)[C@@H]1OC(=O)CCCCC`, the IC50 was 18.1 µM in data set [5], 14.9 µM in [6], 17 µM in [7] and 16.7 µM in data set [8]. Further, in data set [9], the Activity amounted to 63.8%. In data set [10], the viability at 5000 µM is 40.6%.
`CCCCCCC[C@@H](CC(=O)N[C@H](CO)CC(C)C)OC(=O)C[C@H](CCCCCCC)OC(=O)C[C@H](CCCCCCC)O[C@@H]1O[C@@H](C)[C@H](O)[C@@H](O)[C@H]1O`: the IC50 at 24 h turned out to be 6.9 µM in data set [11] and 22 µM in data set [12].
`CO[C@@H]1O[C@H](CO)[C@@H](O[C@@H]2O[C@H](CO)[C@H](OS(=O)(=O)O)[C@H](O)[C@H]2O)[C@H](O[C@@H]2O[C@@H](C)[C@@H](O)[C@@H](O)[C@@H]2O)[C@H]1O`: the IC50 in [13] is 79 µM.
Regarding `C=CCCCC[C@@H](C)O[C@@H]1O[C@@H](C)[C@H](OC(=O)C[C@H]2C[C@@H]3O[C@]4(C)CC[C@H]5[C@H](C)CC[C@@H]([C@H]2C)[C@@]35OO4)C[C@H]1O`, the IC50 in data set [14], in data set [15], in [16] and in [17] was 15.1 µM each time.
For `CCC/C=C\C[C@@H](O[C@H](/C=C/[C@@H](C/C=C\CCCC(=O)OC)OC[C@H]1O[C@@H](OC[C@H](O)CO)[C@H](O)[C@@H](O)[C@@H]1O)[C@H](O)C/C=C\CCCCC)[C@H](O)/C=C/[C@@H](O)CCCCC(=O)OC`, the IC50 in data set [18] and in [19] was 0.003 µM each time.
As to `C/C=C(\C)C(=O)O[C@@H]1[C@@H](O)[C@H](O[C@H]2[C@H](O[C@H](CCC)CCCCC)O[C@H](C)[C@H](OC(C)=O)[C@@H]2O)O[C@H](COC(=O)CCC(=O)CCC)[C@H]1OC(=O)/C=C/c1ccccc1`, the IC50 turned out to be 0.0188 µM in data set [20]; 0.0782 µM in data set [21]; 0.03 µM in [22]; 0.0171 µM in data set [23]; 0.0225 µM in data set [24]; 0.0118 µM in [25]. Further, the IC50 in data set [26] came out at 0.0207 µM.
As to `CN[C@H]1[C@@H](O)C[C@H](O[C@H]2C/C=C(\C)C/C(C)=C/C=C/CC[C@H](C)CNC(=O)/C=C/C=C/[C@@H]2C)O[C@@H]1C` [VICENISTATIN], the IC50 in [27] is 0.12 µg/mL (≈ 0.24 µM); in data set [28], 0.19 µg/mL (≈ 0.379 µM).

The values are drawn from ChEMBL document CHEMBL5260828, “Amphiphilic glycoconjugates as potential anti-cancer chemotherapeutics” (Eur J Med Chem, 2018).
